According to patent US20050209157A1, “Short bioactive peptides and methods for their use” (priority 2001, published 2005):
Values after ≈ are worked out from the molar mass of the structure shown. Like-named read-outs stand apart in the source and are kept apart here. No end group written: not given here.

What was measured:
in vitro [1] = details: human, WI38 normal lung fibroblast cells
MCF7 = assay: Anti-cancer assay, MTT, LD50; type: cell-based; details: MCF7 breast adenocarcinoma line, MTT, 24 hours with peptide
Description: (§1) Numbers are LD50 values (μg/mL).

SW480 = assay: Anti-cancer assay, MTT, LD50; type: cell-based; details: SW480 colon adenocarcinoma line, 24 hours with peptide
Description: as §1

BMKC = assay: Anti-cancer assay, MTT, LD50; type: cell-based; details: BMKC cloned melanoma line, 24 hours with peptide
Description: as §1

in vitro [2] = type: cell-based, human; details: human, human red blood cells
Method: This hemolytic assay is based upon that presented in Journal of Peptide Research 53: 82-90 (1999). […] All procedures were performed according to safety protocols pertaining to the handling and disposal of human body fluids.
Red blood cells (RBCs) were washed three times with PBS (35 mM phosphate buffer 0.15 M NaCl, pH 7.0). RBCs suspended in PBS (0.4% (v/v); about 10 ml per 15 peptides) were prepared. Suspensions (100 μl) were aliquoted to each sample and control tube. Serially diluted peptide solutions (100 μl) were pipetted into the sample tubes. Negative control tubes contained 100 μl PBS; positive control tubes contained 100 μl 1% Triton-X100 detergent. All tubes were incubated for 1 hour at 37° C. The tubes were removed from the incubator and centrifuged at 1000 g for 5 minutes. Supernatant (100 μl) was pipetted to a 96-well polyvinyl chloride plate. The absorbance at 414 nm (A414) was measured, and used to calculate the percent hemolysis according to the following formula. [formula]

WI38 = details: MTT, 24 hours with peptide; normal fibroblast line
PC3 = assay: Anti-cancer assay, MTT, LD50; type: cell-based; details: 24 hours with peptide, prostate adenocarcinoma
Description: as §1

H1299 = assay: Anti-cancer assay, MTT, LD50; type: cell-based; details: 24 hours with peptide, lung large cell carcinoma
Description: as §1

HeLaS3 = assay: Anti-cancer assay, MTT, LD50; type: cell-based; details: 24 hours with peptide, cervical carcinoma
Description: as §1

[3] = LD50 WI38, WI38 normal lung fibroblast line, MTT, 24 hours with peptide
[4] = WI-38 LD50, Table 26, valine substitution
[5] = pH 7, Table 26, valine substitution, read-out: Hemolysis RBC LD50
[6] = pH 7, hemolytic assay, concentration at 50% hemolysis, 1 hour at 37° C., read-out: LD50

VAKKLAKLAKKLLAL-NH2 [FLAK43 AM V]
CC50 at 24 h (in vitro [1]; [3]): 85 µg/mL
LD50 MCF7 (MCF7): 86 µg/mL

FAKKLAKKLKKLAKKLAK-NH2 [Shiva 10(1-18)AM]
CC50 at 24 h (in vitro [1]; [3]): 101 µg/mL
LD50 SW480 (SW480): 63 µg/mL
LD50 BMKC (BMKC): 66 µg/mL
LD50 MCF7 (MCF7): 45 µg/mL

VALALKALKKLAKKLKKLAKKAL-NH2 [compound 509]
CC50 at 24 h (in vitro [1]; [4]): 95 µg/mL
HC50 at 1 h (in vitro [2]; [5]): 40 µg/mL

FAKKFAKKFKKFAKKFAKFAFAF-NH2 [compound 301]
HC50 at 1 h (in vitro [2]; [5]): 10 µg/mL

CC(C)C[C@H](NC(=O)[C@H](C)NC(=O)[C@H](CC(C)C)NC(=O)[C@H](C)NC(=O)[C@H](CC(C)C)NC(=O)[C@H](CCCCN)NC(=O)[C@H](C)NC(=O)[C@H](CC(C)C)NC(=O)[C@H](CCCCN)NC(=O)[C@H](CCCCN)NC(=O)[C@H](C)NC(=O)[C@H](CC(C)C)NC(=O)[C@H](CCCCN)NC(=O)[C@H](C)NC(=O)[C@H](CC(C)C)NC(=O)[C@H](CCCCN)NC(=O)[C@H](CCCCN)NC(=O)[C@H](C)NC(=O)[C@@H](N)C(C)C)C(N)=O [compound 504]
CC50 at 24 h (in vitro [1]; [4]): 110 µg/mL (≈ 55.3 µM)
HC50 at 1 h (in vitro [2]; [5]): 70 µg/mL

VALALKALKKLLKKLKKLAKKAL-NH2 [03 AMV]
CC50 at 24 h (in vitro [1]; [3]): 77 µg/mL
LD50 MCF7 (MCF7): 62 µg/mL

CC(C)C[C@H](NC(=O)[C@H](C)NC(=O)[C@H](CC(C)C)NC(=O)[C@H](C)NC(=O)[C@H](CC(C)C)NC(=O)[C@H](CCCCN)NC(=O)[C@H](C)NC(=O)[C@H](CC(C)C)NC(=O)[C@H](CCCCN)NC(=O)[C@H](CCCCN)NC(=O)[C@H](C)NC(=O)[C@H](CC(C)C)NC(=O)[C@H](CCCCN)NC(=O)[C@H](C)NC(=O)[C@H](CC(C)C)NC(=O)[C@H](CCCCN)NC(=O)[C@H](CCCCN)NC(=O)[C@H](C)NC(=O)[C@@H](N)Cc1ccccc1)C(N)=O [P36]
CC50 at 24 h (in vitro [1]; [3]): 19 µg/mL (≈ 9.32 µM)
HC50 at 1 h (in vitro [2]; [6]): 85 µg/mL
WI38 LD50 (WI38): 19 µg/mL
LD50 SW480 (SW480): 30 µg/mL
PC3 LD50 (PC3): 19 µg/mL
H1299 LD50 (H1299): 57 µg/mL
LD50 BMKC (BMKC): 56 µg/mL
LD50 MCF7 (MCF7): 9 µg/mL

VALALKALKKALKKLKKALKKAL-NH2 [P30]
WI38 LD50 (WI38): 93 µg/mL

FALLKALLKKAL-NH2 [Flak 961]
CC50 at 24 h (in vitro [1]; WI38 LD50, MTT, 24 hours with peptide, normal fibroblast line): 270 µg/mL
PC3 LD50 (PC3): 120 µg/mL
H1299 LD50 (H1299): 240 µg/mL
HeLaS3 LD50 (HeLaS3): 380 µg/mL

VAKFLAKFLKKAL-NH2 [compound 502]
CC50 at 24 h (in vitro [1]; [4]): 64 µg/mL
HC50 at 1 h (in vitro [2]; [5]): 100 µg/mL

VAKLLAKALKKLL-NH2 [P506]
HC50 at 1 h (in vitro [2]; [6]): 120 µg/mL

FKVKFKVKVK-NH2 [P303, reference compound]
CC50 at 24 h (in vitro [1]; [3]): 355 µg/mL
HC50 at 1 h (in vitro [2]; [6]): 500 µg/mL
WI38 LD50 (WI38): 355 µg/mL
LD50 SW480 (SW480): 530 µg/mL
PC3 LD50 (PC3): 530 µg/mL
H1299 LD50 (H1299): 345 µg/mL
LD50 BMKC (BMKC): 330 µg/mL
LD50 MCF7 (MCF7): 315 µg/mL
HeLaS3 LD50 (HeLaS3): > (> indicates greater than 1000)

VAKKFAKKFKKFAKKFAKFAFAF-NH2 [compound 503]
CC50 at 24 h (in vitro [1]; [4]): 150 µg/mL
HC50 at 1 h (in vitro [2]; [5]): 20 µg/mL

FALALKALKKLKKALKKAL-OH [P28]
CC50 at 24 h (in vitro [1]; [3]): 101 µg/mL
HC50 at 1 h (in vitro [2]; [6]): 700 µg/mL
WI38 LD50 (WI38): 101 µg/mL
LD50 SW480 (SW480): 59 µg/mL
PC3 LD50 (PC3): 16 µg/mL
H1299 LD50 (H1299): 54 µg/mL
LD50 BMKC (BMKC): 93 µg/mL
LD50 MCF7 (MCF7): 65 µg/mL
HeLaS3 LD50 (HeLaS3): 80 µg/mL

CC(C)C[C@H](NC(=O)[C@H](C)NC(=O)[C@H](CC(C)C)NC(=O)[C@H](C)NC(=O)[C@H](CC(C)C)NC(=O)[C@H](CCCCN)NC(=O)[C@H](C)NC(=O)[C@H](CC(C)C)NC(=O)[C@H](CCCCN)NC(=O)[C@H](CCCCN)NC(=O)[C@H](C)NC(=O)[C@H](CC(C)C)NC(=O)[C@H](CCCCN)NC(=O)[C@H](C)NC(=O)[C@H](CC(C)C)NC(=O)[C@H](CCCCN)NC(=O)[C@H](CCCCN)NC(=O)[C@H](C)NC(=O)[C@@H](N)C(C)C)C(N)=O [FLAK 25 AM V]
CC50 at 24 h (in vitro [1]; [3]): 110 µg/mL (≈ 55.3 µM)
LD50 MCF7 (MCF7): 130 µg/mL

VALALKALKKALKKLKKALKKAL-OH [HECATE AC V]
CC50 at 24 h (in vitro [1]; [3]): 190 µg/mL
LD50 MCF7 (MCF7): 160 µg/mL

VALALKALKKLAKKLKKLAKKAL-NH2 [FLAK04 AM V]
CC50 at 24 h (in vitro [1]; [3]): 95 µg/mL
LD50 MCF7 (MCF7): 84 µg/mL
